# Measured values as given in article PMC7714403 (JCI Insight, 2020).
# Columns and labels:
# OCI-AML3 cells [1] = experiment: Cell cycle analysis; assay type: cell-based, human; conditions: 20 nM, 12–24 hours
# Description: (§1) Luc+ or MOLM13-Res -Luc+ cells, 0.5 million OCI-AML3 -Luc+ cells, and 10,000 Ba/F3-FLT3-ITD/F691L-GFP+ cells. Weekly tumor engraftment of cell line xenograft models were assessed after injection of D-luciferin (150mg/kg i.p.; Gold Biotechnology, Inc, St. Louis, MO) on Xenogen IVIS-200 imaging system (Perkin Elmer, Waltham, MA) or GFP monitoring by peripheral blood via BD LSR II flow cytometer (BD Biosciences, San Jose, CA). Signal intensity was analyzed using Living Image Software (PerkinElmer) or FlowJo v10.0.08 software (FlowJo, LLC, Ashland, OR). Mice were randomized to treatment groups based on signal intensity and leukemia burden. Drug treatments were started on days 3, 7, or 13 after cell injection in OCI-AML3, MOLM13, and MOLM13-Res xenografts, respectively. In murine AML transplantation model, 1 million FLT3-ITD+/-/IDH2-R140Q+/- splenocytes (in house colony) were intravenously injected in male NSG mice. On day 7, mice were started on drug treatments. […]
# (§2) At indicated time points, cells were collected and washed with PBS. CD11b expression was measured using anti-CD11b -APC antibody (BioLegend, San Diego, CA). […] CD11b expression and apoptosis were measured by BD LSR II flow cytometer. […]
# (§3) with DAPI in 0.1% Triton-X (ThermoFisher Scientific) PBS for 30 minutes at room temperature and protected from light. The DNA content was determined using a BD LSR II flow cytometer. […]
# [2] = system: MV4-11, MOLM13, and MOLM13-RES cells; experiment: Cell cycle analysis; assay type: cell-based, human; conditions: 20 nM, 12 hours
# Description: as §1, §2, §3
# MST1, MST2 = experiment: KiNativ, OCI cells live cell; assay type: cell-based, human; conditions: labeling site Lys2, peptide DIKAGNILLNTEGHAK
# JNK1, JNK2, JNK3 = experiment: KiNativ, OCI cells live cell; assay type: cell-based, human; conditions: labeling site Lys2, peptide DLKPSNIVVK
# [3] = system: FGFR1, FMS, PDGFRb, TYRO3; experiment: KiNativ, OCI cells live cell; assay type: cell-based, human; conditions: labeling site Lys1, peptide VAVKMLK
# [4] = system: RSK1 domain1, RSK2 domain1, RSK3 domain1; experiment: KiNativ, OCI cells live cell; assay type: cell-based, human; conditions: labeling site Lys2, peptide DLKPENILLDEEGHIK
# MAP3K5 = MAP3K5 (Homo sapiens, UniProt Q99683); experiment: KiNativ, OCI cells live cell; assay type: cell-based; conditions: 2 h, labeling site Lys2, peptide […]
# p70S6K = p70S6K (Homo sapiens, UniProt P23443); experiment: KiNativ, OCI cells live cell; assay type: cell-based; conditions: 2 h, labeling site Lys2, peptide […]
# p70S6K, sequence (P23443 whole entry): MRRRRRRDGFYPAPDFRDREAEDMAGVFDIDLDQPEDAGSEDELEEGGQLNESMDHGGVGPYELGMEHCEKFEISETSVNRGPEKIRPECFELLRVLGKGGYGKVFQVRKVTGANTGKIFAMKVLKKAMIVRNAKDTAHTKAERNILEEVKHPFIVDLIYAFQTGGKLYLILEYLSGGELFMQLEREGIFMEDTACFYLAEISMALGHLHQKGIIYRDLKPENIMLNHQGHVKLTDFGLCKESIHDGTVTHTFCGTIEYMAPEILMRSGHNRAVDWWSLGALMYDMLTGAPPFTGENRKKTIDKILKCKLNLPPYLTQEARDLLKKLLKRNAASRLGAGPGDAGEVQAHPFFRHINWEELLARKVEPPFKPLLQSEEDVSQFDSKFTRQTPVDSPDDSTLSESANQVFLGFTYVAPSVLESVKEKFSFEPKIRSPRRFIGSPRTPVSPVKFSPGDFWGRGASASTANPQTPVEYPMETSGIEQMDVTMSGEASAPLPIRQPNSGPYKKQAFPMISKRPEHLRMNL
# KSR1, KSR2 = experiment: KiNativ, OCI cells live cell; assay type: cell-based, human; conditions: labeling site Activation Loop, peptide SKNVFYDNGK
# SMG1 = SMG1 (Homo sapiens, UniProt Q96Q15); experiment: KiNativ, OCI cells live cell; assay type: cell-based; conditions: labeling site ATP
# SMG1, sequence (Q96Q15 whole entry): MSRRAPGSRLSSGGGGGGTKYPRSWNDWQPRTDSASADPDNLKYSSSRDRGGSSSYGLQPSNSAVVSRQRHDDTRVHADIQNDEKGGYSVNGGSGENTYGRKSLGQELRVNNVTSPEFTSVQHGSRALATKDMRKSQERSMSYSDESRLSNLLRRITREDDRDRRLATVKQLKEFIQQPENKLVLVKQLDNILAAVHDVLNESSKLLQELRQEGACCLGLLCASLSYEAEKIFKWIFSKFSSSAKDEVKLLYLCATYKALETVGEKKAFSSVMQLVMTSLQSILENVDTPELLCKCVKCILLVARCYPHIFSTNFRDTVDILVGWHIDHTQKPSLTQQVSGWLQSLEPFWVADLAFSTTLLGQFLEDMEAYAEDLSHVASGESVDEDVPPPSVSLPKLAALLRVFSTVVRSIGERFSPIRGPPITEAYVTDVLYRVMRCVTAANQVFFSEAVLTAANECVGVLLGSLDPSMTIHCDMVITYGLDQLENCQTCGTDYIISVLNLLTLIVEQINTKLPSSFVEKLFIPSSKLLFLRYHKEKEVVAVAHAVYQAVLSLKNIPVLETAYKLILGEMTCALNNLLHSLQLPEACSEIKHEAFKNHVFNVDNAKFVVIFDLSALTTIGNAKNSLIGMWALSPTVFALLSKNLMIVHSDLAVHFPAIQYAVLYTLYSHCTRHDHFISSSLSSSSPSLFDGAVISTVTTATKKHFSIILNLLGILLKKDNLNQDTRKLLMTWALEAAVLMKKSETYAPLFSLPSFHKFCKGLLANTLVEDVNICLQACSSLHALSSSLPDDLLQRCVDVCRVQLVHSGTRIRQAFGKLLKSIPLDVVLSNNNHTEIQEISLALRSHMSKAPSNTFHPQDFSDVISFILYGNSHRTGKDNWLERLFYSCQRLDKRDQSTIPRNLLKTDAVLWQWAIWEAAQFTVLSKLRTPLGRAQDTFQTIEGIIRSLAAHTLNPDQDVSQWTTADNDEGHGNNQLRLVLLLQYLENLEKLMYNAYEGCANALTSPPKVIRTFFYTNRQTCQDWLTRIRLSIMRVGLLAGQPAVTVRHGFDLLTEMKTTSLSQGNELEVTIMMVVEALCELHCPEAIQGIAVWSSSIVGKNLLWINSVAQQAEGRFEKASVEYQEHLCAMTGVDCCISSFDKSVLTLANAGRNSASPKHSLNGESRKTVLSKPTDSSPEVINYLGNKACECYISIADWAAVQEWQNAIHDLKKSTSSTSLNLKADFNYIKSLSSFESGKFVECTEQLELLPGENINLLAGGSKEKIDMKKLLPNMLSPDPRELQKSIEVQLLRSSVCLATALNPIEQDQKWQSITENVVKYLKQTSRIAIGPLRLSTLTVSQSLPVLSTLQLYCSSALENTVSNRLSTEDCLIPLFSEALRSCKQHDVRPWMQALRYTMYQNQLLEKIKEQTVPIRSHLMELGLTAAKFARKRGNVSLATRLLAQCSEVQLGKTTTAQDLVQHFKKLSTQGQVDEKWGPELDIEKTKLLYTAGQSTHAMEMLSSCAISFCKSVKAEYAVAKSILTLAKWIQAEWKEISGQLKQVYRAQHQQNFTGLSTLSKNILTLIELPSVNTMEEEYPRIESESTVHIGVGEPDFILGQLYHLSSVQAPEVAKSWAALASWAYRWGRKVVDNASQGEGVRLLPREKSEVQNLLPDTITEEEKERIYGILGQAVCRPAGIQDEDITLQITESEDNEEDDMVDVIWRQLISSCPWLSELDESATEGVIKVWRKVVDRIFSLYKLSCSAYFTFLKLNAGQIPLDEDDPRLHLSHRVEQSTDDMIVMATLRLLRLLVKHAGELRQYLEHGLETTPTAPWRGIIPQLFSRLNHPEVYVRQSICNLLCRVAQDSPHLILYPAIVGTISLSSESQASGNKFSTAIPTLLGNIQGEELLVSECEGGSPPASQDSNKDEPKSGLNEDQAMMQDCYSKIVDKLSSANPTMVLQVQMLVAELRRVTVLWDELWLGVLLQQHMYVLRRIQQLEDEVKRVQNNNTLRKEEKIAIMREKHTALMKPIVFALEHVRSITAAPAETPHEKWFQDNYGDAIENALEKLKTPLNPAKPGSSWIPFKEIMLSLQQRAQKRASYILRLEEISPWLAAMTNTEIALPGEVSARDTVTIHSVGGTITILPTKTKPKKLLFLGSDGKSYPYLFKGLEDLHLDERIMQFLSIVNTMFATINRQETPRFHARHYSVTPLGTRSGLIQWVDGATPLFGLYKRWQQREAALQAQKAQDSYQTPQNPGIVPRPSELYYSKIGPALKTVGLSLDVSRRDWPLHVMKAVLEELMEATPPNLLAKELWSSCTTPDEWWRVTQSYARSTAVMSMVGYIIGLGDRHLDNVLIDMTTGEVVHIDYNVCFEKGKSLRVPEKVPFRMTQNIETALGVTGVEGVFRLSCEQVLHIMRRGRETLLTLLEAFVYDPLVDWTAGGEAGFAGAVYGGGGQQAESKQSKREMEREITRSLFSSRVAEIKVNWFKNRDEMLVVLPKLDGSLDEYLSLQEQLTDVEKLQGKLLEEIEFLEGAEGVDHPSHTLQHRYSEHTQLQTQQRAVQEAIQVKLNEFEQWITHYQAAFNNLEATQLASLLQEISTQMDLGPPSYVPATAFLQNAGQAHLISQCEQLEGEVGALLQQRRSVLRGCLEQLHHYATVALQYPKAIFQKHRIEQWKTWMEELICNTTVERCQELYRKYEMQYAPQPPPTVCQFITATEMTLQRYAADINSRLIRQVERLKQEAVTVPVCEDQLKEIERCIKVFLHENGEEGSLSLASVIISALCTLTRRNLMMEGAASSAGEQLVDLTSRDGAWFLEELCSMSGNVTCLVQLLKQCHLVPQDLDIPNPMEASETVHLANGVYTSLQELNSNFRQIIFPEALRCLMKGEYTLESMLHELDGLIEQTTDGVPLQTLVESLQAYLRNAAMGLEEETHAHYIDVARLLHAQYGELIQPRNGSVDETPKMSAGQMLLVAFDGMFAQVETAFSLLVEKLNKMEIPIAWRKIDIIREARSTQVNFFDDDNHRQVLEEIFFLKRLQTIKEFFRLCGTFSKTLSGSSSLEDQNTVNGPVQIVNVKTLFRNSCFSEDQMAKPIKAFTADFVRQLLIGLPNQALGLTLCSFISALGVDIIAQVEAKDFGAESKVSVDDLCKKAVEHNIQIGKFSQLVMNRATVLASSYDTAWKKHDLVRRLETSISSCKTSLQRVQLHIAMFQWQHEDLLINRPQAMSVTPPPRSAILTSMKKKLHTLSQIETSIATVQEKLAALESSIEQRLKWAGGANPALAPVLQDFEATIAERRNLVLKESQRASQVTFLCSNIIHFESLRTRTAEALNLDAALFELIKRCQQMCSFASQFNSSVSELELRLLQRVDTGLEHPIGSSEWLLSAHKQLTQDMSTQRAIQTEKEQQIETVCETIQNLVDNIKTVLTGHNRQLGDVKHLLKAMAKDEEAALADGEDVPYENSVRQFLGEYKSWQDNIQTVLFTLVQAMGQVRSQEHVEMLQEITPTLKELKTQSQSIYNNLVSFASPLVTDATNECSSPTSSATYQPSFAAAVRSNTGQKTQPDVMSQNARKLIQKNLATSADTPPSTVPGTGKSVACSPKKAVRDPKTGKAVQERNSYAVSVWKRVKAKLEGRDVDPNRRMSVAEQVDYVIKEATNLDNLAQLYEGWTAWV
# AGK = AGK (Homo sapiens, UniProt Q53H12); experiment: KiNativ, OCI cells live cell; assay type: cell-based; conditions: 2 h, labeling site ATP, peptide […]
# AGK, sequence (Q53H12 whole entry): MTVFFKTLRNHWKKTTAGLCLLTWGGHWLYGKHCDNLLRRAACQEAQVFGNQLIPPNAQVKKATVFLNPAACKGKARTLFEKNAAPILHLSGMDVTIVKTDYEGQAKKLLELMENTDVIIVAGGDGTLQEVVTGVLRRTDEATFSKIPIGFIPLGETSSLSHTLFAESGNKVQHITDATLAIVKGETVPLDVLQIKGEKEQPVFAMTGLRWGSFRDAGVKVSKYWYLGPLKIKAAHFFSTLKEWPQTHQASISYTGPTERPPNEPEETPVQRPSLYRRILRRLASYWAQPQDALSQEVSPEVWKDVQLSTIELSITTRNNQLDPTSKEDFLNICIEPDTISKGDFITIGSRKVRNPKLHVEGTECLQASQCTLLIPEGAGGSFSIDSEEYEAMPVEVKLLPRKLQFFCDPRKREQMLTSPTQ
# PCTAIRE2 = PCTAIRE2 (Homo sapiens, UniProt Q00537); experiment: KiNativ, OCI cells live cell; assay type: cell-based; conditions: 2 h, labeling site Lys2, peptide […]
# PCTAIRE2, sequence (Q00537 whole entry): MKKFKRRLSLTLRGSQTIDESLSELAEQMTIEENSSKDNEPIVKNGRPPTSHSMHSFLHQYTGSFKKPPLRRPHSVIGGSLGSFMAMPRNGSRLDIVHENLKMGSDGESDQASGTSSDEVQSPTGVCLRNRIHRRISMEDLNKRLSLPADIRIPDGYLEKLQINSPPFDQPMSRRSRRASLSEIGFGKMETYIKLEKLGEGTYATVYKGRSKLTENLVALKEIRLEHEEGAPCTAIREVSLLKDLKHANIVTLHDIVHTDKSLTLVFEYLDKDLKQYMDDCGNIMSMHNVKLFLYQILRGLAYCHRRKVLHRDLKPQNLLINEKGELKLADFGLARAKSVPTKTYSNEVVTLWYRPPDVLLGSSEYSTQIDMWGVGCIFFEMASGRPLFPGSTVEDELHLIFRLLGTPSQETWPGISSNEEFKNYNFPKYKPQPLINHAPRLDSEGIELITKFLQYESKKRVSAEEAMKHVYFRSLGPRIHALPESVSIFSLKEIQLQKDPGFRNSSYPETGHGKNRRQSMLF
# OCI-AML3 cells [5] = experiment: CD11b expression assay; assay type: cell-based, human; conditions: 20 nM and 50 nM, 72 hours
# Description: (§4) Apoptosis and CD11b expression assays
# (§5) At indicated time points, cells were collected and washed with PBS. CD11b expression was measured using anti-CD11b -APC antibody (BioLegend, San Diego, CA). Each sample was suspended in 100uL of FACS buffer (PBS + 4% FBS) with 1uL of antibody, incubated on ice for 15 minutes in the dark and washed once in PBS. DAPI (final concentration 1ug/mL [ThermoFisher Scientific]) was added to each sample as a viability dye. For apoptosis assay, cells were incubated with annexin V-APC (BioLegend) according to manufacturer’s instructions. CD11b expression and apoptosis were measured by BD LSR II flow cytometer. Two-color cytometry was performed, and data were […]
# (§6) points, cells were collected and washed with 0.1% EDTA PBS (Ricca Chemical Company, Arlington, TX) followed by only PBS. Cells were then fixed on ice with ice-cold 70% ethanol for 30 minutes . Cells were either stored at -20°C for up to 1 month or processed immediately. Cells were spun down at 450 x g for 10 minutes and stained
# [6] = system: MV4-11, MOLM13, and MOLM13-RES cells; experiment: CD11b expression assay; assay type: cell-based, human; conditions: 20 nM, 72 hours
# Description: as §4, §5, §6
# NEK2 = NEK2 (Homo sapiens, UniProt P51955); experiment: KiNativ, OCI cells live cell; assay type: cell-based; conditions: 2 h, labeling site Lys2, peptide […]
structure (smiles),measurement,setting,value
CN1CCN(Cc2ccc(Nc3ncc(Cl)c(Nc4ccccc4S(=O)(=O)N(C)C)n3)cc2)CC1 [TP-0903],Cell cycle,OCI-AML3 cells [1],G2-M cell cycle arrest
same,Cell cycle,[2],G2-M cell cycle arrest
same,Inhibition,"MST1, MST2",35.6%
same,Inhibition,"JNK1, JNK2, JNK3",14.0%
same,Inhibition,[3],4.2%
same,Inhibition,[4],54.4%
same,inhibition at 0.1 µM,MAP3K5,-1.8%
same,inhibition at 0.1 µM,p70S6K,6.3%
same,Inhibition,"KSR1, KSR2",-3.1%
same,Inhibition,SMG1; peptide DTVTIHSVGGTITILPTKTKPK,12.1%
same,Inhibition,SMG1; peptide SYPYLFKGLEDLHLDER,-6.4%
same,inhibition at 0.1 µM,AGK,-26.9%
same,inhibition at 0.1 µM,PCTAIRE2,87.8%
same,CD11b expression,OCI-AML3 cells [5],increase
same,Cell surface expression of CD11b,[6],increased
same,inhibition at 0.1 µM,NEK2,23.6%
